Legend:
Experiment in all cases: relative viability (nuclei count vs DMSO), 5 days (fraction); higher = more cells survive
LOU-NH91 = tested on: LOU-NH91
Outline: (§1)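 Relative viability divides the nuclei count in treated wells by that in vehicle wells. Lung cancer cell lines were seeded in 1536-well plates, dosed by pin tool the next day, and fixed and stained after 5 days in one step with final 0.05% Triton X-100, 1% formaldehyde and 1 ug/ml Hoechst. Dosing was a single drug or a fixed anchor-drug dose plus five library-drug doses (not always all listed) in √10 steps, and values are medians of duplicate plates imaged at 4×.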

HCC-827 = tested on: HCC-827
Outline: as §1

NCI-H2085 = tested on: NCI-H2085
Outline: as §1

NCI-H1666 = tested on: NCI-H1666
Outline: as §1

NCI-H2087 = tested on: NCI-H2087
Outline: as §1

HCC-44 = tested on: HCC-44
Outline: as §1

201T = tested on: 201T
Outline: as §1

LU99A = tested on: LU99A
Outline: as §1

NCI-H2342 = tested on: NCI-H2342
Outline: as §1

NCI-H647 = tested on: NCI-H647
Outline: as §1

HOP-62 = tested on: HOP-62
Outline: as §1

NCI-H1437 = tested on: NCI-H1437
Outline: as §1

EKVX = tested on: EKVX
Outline: as §1

H3255 = tested on: H3255
Outline: as §1

LCLC-97TM1 = tested on: LCLC-97TM1
Outline: as §1

NCI-H1975 = tested on: NCI-H1975
Outline: as §1

EPLC-272H = tested on: EPLC-272H
Outline: as §1

PC-3 [JPC-3] = tested on: PC-3 [JPC-3]
Outline: as §1

BEN = tested on: BEN
Outline: as §1

NCI-H1395 = tested on: NCI-H1395
Outline: as §1

NCI-H358 = tested on: NCI-H358
Outline: as §1

SMILES: CC1(C)CCC(c2ccc(Cl)cc2)=C(CN2CCN(c3ccc(C(=O)NS(=O)(=O)c4ccc(N[C@H](CCN5CCOCC5)CSc5ccccc5)c(S(=O)(=O)C(F)(F)F)c4)cc3)CC2)C1 [Navitoclax] + NC(=O)Nc1cc(-c2cccc(F)c2)sc1C(=O)N[C@H]1CCCNC1 [AZD7762] (partner 0.2 µM)
- relative viability (LOU-NH91; first compound 0.005 µM): 0.746
- relative viability (LOU-NH91; first compound 0.01581 µM): 0.792
- relative viability (LOU-NH91; first compound 0.05 µM): 0.656
- relative viability (LOU-NH91; first compound 0.1581 µM): 0.535
- relative viability (LOU-NH91; first compound 0.5 µM): 0.306
- relative viability (HCC-827; first compound 0.005 µM): 0.274
- relative viability (HCC-827; first compound 0.01581 µM): 0.188
- relative viability (HCC-827; first compound 0.05 µM): 0.186
- relative viability (HCC-827; first compound 0.1581 µM): 0.199
- relative viability (HCC-827; first compound 0.5 µM): 0.235
- relative viability (NCI-H2085; first compound 0.005 µM): 0.941
- relative viability (NCI-H2085; first compound 0.01581 µM): 1.01
- relative viability (NCI-H2085; first compound 0.05 µM): 0.885
- relative viability (NCI-H2085; first compound 0.1581 µM): 1.07
- relative viability (NCI-H2085; first compound 0.5 µM): 0.942
- relative viability (NCI-H1666; first compound 0.005 µM): 0.934
- relative viability (NCI-H1666; first compound 0.01581 µM): 0.883
- relative viability (NCI-H1666; first compound 0.05 µM): 0.738
- relative viability (NCI-H1666; first compound 0.1581 µM): 0.861
- relative viability (NCI-H1666; first compound 0.5 µM): 0.882
- relative viability (NCI-H2087; first compound 0.005 µM): 1.18
- relative viability (NCI-H2087; first compound 0.01581 µM): 1.38
- relative viability (NCI-H2087; first compound 0.1581 µM): 1.29
- relative viability (NCI-H2087; first compound 0.5 µM): 1.41
- relative viability (HCC-44; first compound 0.005 µM): 0.935
- relative viability (HCC-44; first compound 0.01581 µM): 0.957
- relative viability (HCC-44; first compound 0.05 µM): 0.961
- relative viability (HCC-44; first compound 0.1581 µM): 0.915
- relative viability (HCC-44; first compound 0.5 µM): 0.881
- relative viability (201T; first compound 0.005 µM): 0.656
- relative viability (201T; first compound 0.01581 µM): 0.656
- relative viability (201T; first compound 0.05 µM): 0.41
- relative viability (201T; first compound 0.1581 µM): 0.565
- relative viability (201T; first compound 0.5 µM): 0.504
- relative viability (LU99A; first compound 0.005 µM): 0.414
- relative viability (LU99A; first compound 0.01581 µM): 0.466
- relative viability (LU99A; first compound 0.1581 µM): 0.43
- relative viability (LU99A; first compound 0.5 µM): 0.439
- relative viability (NCI-H2342; first compound 0.005 µM): 0.532
- relative viability (NCI-H2342; first compound 0.01581 µM): 0.464
- relative viability (NCI-H2342; first compound 0.05 µM): 0.424
- relative viability (NCI-H2342; first compound 0.1581 µM): 0.603
- relative viability (NCI-H2342; first compound 0.5 µM): 0.571
- relative viability (NCI-H647; first compound 0.005 µM): 0.413
- relative viability (NCI-H647; first compound 0.01581 µM): 0.446
- relative viability (NCI-H647; first compound 0.05 µM): 0.492
- relative viability (NCI-H647; first compound 0.1581 µM): 0.343
- relative viability (NCI-H647; first compound 0.5 µM): 0.438
- relative viability (HOP-62; first compound 0.005 µM): 0.721
- relative viability (HOP-62; first compound 0.01581 µM): 0.694
- relative viability (HOP-62; first compound 0.05 µM): 0.514
- relative viability (HOP-62; first compound 0.1581 µM): 0.512
- relative viability (HOP-62; first compound 0.5 µM): 0.384
- relative viability (NCI-H1437; first compound 0.005 µM): 1.06
- relative viability (NCI-H1437; first compound 0.01581 µM): 1.23
- relative viability (NCI-H1437; first compound 0.05 µM): 1.06
- relative viability (NCI-H1437; first compound 0.1581 µM): 1.08
- relative viability (NCI-H1437; first compound 0.5 µM): 1.05
- relative viability (EKVX; first compound 0.005 µM): 0.728
- relative viability (EKVX; first compound 0.01581 µM): 0.784
- relative viability (EKVX; first compound 0.05 µM): 0.769
- relative viability (EKVX; first compound 0.1581 µM): 0.729
- relative viability (EKVX; first compound 0.5 µM): 0.777
- relative viability (H3255; first compound 0.005 µM): 0.891
- relative viability (H3255; first compound 0.01581 µM): 1.03
- relative viability (H3255; first compound 0.05 µM): 0.851
- relative viability (H3255; first compound 0.1581 µM): 0.922
- relative viability (H3255; first compound 0.5 µM): 0.805
- relative viability (LCLC-97TM1; first compound 0.005 µM): 0.236
- relative viability (LCLC-97TM1; first compound 0.01581 µM): 0.301
- relative viability (LCLC-97TM1; first compound 0.05 µM): 0.181
- relative viability (LCLC-97TM1; first compound 0.1581 µM): 0.253
- relative viability (LCLC-97TM1; first compound 0.5 µM): 0.22
- relative viability (NCI-H1975; first compound 0.005 µM): 0.855
- relative viability (NCI-H1975; first compound 0.01581 µM): 0.799
- relative viability (NCI-H1975; first compound 0.05 µM): 0.713
- relative viability (NCI-H1975; first compound 0.1581 µM): 0.752
- relative viability (NCI-H1975; first compound 0.5 µM): 0.646
- relative viability (EPLC-272H; first compound 0.005 µM): 0.26
- relative viability (EPLC-272H; first compound 0.05 µM): 0.3
- relative viability (EPLC-272H; first compound 0.1581 µM): 0.143
- relative viability (EPLC-272H; first compound 0.5 µM): 0.257
- relative viability (PC-3 [JPC-3]; first compound 0.005 µM): 0.726
- relative viability (PC-3 [JPC-3]; first compound 0.01581 µM): 0.972
- relative viability (PC-3 [JPC-3]; first compound 0.05 µM): 0.483
- relative viability (PC-3 [JPC-3]; first compound 0.1581 µM): 0.702
- relative viability (PC-3 [JPC-3]; first compound 0.5 µM): 0.759
- relative viability (BEN; first compound 0.005 µM): 0.705
- relative viability (BEN; first compound 0.01581 µM): 0.667
- relative viability (BEN; first compound 0.05 µM): 0.647
- relative viability (BEN; first compound 0.1581 µM): 0.725
- relative viability (BEN; first compound 0.5 µM): 0.377
- relative viability (NCI-H1395; first compound 0.005 µM): 0.368
- relative viability (NCI-H1395; first compound 0.01581 µM): 0.41
- relative viability (NCI-H1395; first compound 0.05 µM): 0.357
- relative viability (NCI-H1395; first compound 0.1581 µM): 0.385
- relative viability (NCI-H1395; first compound 0.5 µM): 0.405
- relative viability (NCI-H358; first compound 0.005 µM): 0.566
- relative viability (NCI-H358; first compound 0.01581 µM): 0.712
- relative viability (NCI-H358; first compound 0.05 µM): 0.545
- relative viability (NCI-H358; first compound 0.1581 µM): 0.485
- relative viability (NCI-H358; first compound 0.5 µM): 0.592

Source: the supplement of paper PMC10307832
